Like-named read-outs stand apart in the source and are kept apart here.
How the values were obtained:
[1] = tested on: Hep G2 (ATCC HB-8065) cells; experiment: Cytotoxicity, MTT assay; format: cell-based; settings: Homo sapiens, HepG2, 24 h
Method: (§1) Before removing the frozen cell stocks from liquid nitrogen, culture medium was pre-warmed to 37° C. The frozen tube was then removed from liquid nitrogen and placed into a 37° C. water bath and shaken gently to thaw the cell stock as quickly as possible. A small portion of the pre-warmed culture medium was added to the cell solution. The cell suspension was then centrifuged at 1000 r/min for 3 minutes. The supernatant was discarded and the cells were resuspended in fresh culture medium.
(§2) NIH 3T3 (ATCC CRL-1658) and Hep G2 (ATCC HB-8065) cells were cultured with DMEM+10% FBS in 100 mm dishes. Cells were lifted for subculture or testing when confluence reached ˜60% by treating with 1× trypsin (incubated for 3 min at 37° C.). J774 (ATCC TIB-67) cells were cultured with DMEM+10% FBS in 100 mm dishes. Cells were lifted for subculture or testing when confluence reached ˜80% using a cell scraper. RAW264.7 (ATCC TIB-71) cells were cultured with DMEM+10% heat-inactivated FBS+1% pen/strep in T75 flasks. Cells were lifted for subculture or testing when confluence reached ˜80% using a cell scraper.
(§3) • 1. Cells were lifted and resuspended in culture medium. The number of cells in the cell suspension was determined using an auto-cell counter: 10 μL of the cell suspension was mixed with 10 μL 1× trypan blue (filtered with 0.2 μm PES filter) and the mixture was loaded onto a cell counting slide. Based on the concentration of viable cells, the cell suspension was further diluted to achieve the desired density. • 2. Cells were seeded in 96 well plates by adding 100 μL final cell suspension column-by-column using a multichannel pipette (5000 cells/well for NIH 3T3, 10000 cells/well for Hep G2, J774 and RAW264.7). The outer wells were block with PBS to reduce the effects of evaporation. One column was filled with only culture medium as a blank. Cells were incubated overnight before adding the test articles. • 3. Test articles were dissolved in 1×PBS (or DMSO) to obtain stocks solution. Stock solutions were pre-warmed before use. […] Serial dilutions (2-fold) of the 10× solutions were made in sterile culture tubes by diluting in 1×PBS (8 dilutions to yield 9 test concentrations). 900 μL of culture media was added to each tube to obtain final drug solution containing 10% PBS (or less than 1% DMSO) for each experimental group. • 4. The original culture medium was gently removed from the 96-well plates using a pipette. 100 μL of the test article solutions prepared in Step 3 were added to rows 2-7 of each column to obtain six replicates for each concentration. Plates were then incubated for 24 hours. • 5. MTT solutions were prepared by dissolving commercial MTT powder in 1×PBS to a concentration of 5 mg/mL. After passing through a 0.22 μm PES filter, the MTT solution was divided into 1 mL portions in sterile centrifuge tubes and stored at −20° C. • 6. MTT stock solutions were removed from the freezer to thaw at room temperature. Before adding MTT solutions, cell cultures were visually inspected and imaged using a microscope (to use as a comparison with MTT results). 10 μL of the 5 mg/mL MTT solution was added to each well and the plate was incubated for 4 hours. • 7. After 4 h incubation, the culture medium/MT solution was removed gently using a pipette. 100 μL of DMSO was added to each well using a multichannel pipette. The 96-well plates were analyzed in a plate reader using the following method: shake for 5 minutes, wait for 30 seconds, and measure absorbance at 570 nm. • 8. Data processing: The average of background Abg was calculated from the blank column. All other data was first treated by subtracting Abg. The average A. and standard deviation Se of each experimental group and the average Ac and standard deviation Sc for control group (with pure culture medium incubation) were then calculated. The cell viability was determined as Ae/Ac×100% and corresponding error as Se/Ae×100%. Significant outliers in any experimental or control group were removed. […]

Cytotoxicity, MTT assay = format: cell-based; settings: human, Hep G2, at the concentration given as IC50 bound, read-out: cell viability at the highest or lowest test concentration
Method: as §1, §2, §3

[2] = tested on: NIH 3T3 (ATCC CRL-1658) cells; experiment: Cytotoxicity, MTT assay; format: cell-based; settings: Mus musculus, NIH3T3; NIH 3T3; MTT, 24 hours incubation; read-out: IC50
Method: as §1, §2, §3

E. coli K12 (ATCC 47076) = experiment: MIC broth microdilution method, Table 3; settings: Escherichia coli, ATCC47076
[3] = tested on: S. epidermidis (ATCC 14990); experiment: MIC broth microdilution method, Table 3; settings: Staphylococcus epidermidis, ATCC14990
[4] = Hep G2, MTT, 24 hours incubation, read-out: IC50

| MIC (E. coli K12 (ATCC 47076)) [µg/mL] | SMILES | IC50 [1, 4] [µg/mL] | viability at 24 h (Cytotoxicity, MTT assay; Hep G2 (ATCC HB-8065) cells) [%] | further results |
| --- | --- | --- | --- | --- |
| – | C[N+](C)(C)CCCCCCCCOc1cc(/C=C/c2cc(OCCCCCCCC[N+](C)(C)C)cc(OCCCCCCC[N+](C)(C)C)c2)cc(OCCCCCCC[N+](C)(C)C)c1.[I-].[I-].[I-].[I-] [Formula B] | – | – | IC50 [1]: 9.9 µg/mL |
| – | C[N+](C)(C)CCCCCCN(CCCCCC[N+](C)(C)C)c1ccc(/C=C/c2ccc(/C=C/c3ccc(/C=C/c4ccc(N(CCCCCC[N+](C)(C)C)CCCCCC[N+](C)(C)C)cc4)cc3)cc2)cc1 [Formula VV] | > 128 | 64 | – |
| – | C[N+](C)(C)CCCCCCOc1cc(/C=C/c2cc(OCCCCCC[N+](C)(C)C)cc(OCCCCCC[N+](C)(C)C)c2)cc(OCCCCCC[N+](C)(C)C)c1 [Formula A] | – | – | IC50 [1]: > 128 µg/mL; viability at 24 h (Cytotoxicity, MTT assay): 68% |
| 32 | CCCC[N+](C)(CCCCOc1cc(/C=C/c2ccc(/C=C/c3cc(OCCCC[N+](C)(CCCC)CCOCCOC)cc(OCCCC[N+](C)(CCCC)CCOCCOC)c3)cc2)cc(OCCCC[N+](C)(CCCC)CCOCCOC)c1)CCOCCOC (stereo not shown) [Formula GG] | – | – | IC50 [2]: 77.8 µg/mL |
| 64 | C[N+](C)(C)CCCOc1cc(/C=C/c2ccc(/C=C/c3cc(OCCC[N+](C)(C)C)cc(OCCC[N+](C)(C)C)c3)cc2)cc(OCCC[N+](C)(C)C)c1 [Formula X] | > 1020 | 73 | – |
| 4 | CC(C)CCC[N+](C)(C)CCCCOc1cc(/C=C/c2ccc(/C=C/c3cc(OCCCC[N+](C)(C)CCCC(C)C)cc(OCCCC[N+](C)(C)CCCC(C)C)c3)cc2)cc(OCCCC[N+](C)(C)CCCC(C)C)c1.[I-].[I-].[I-].[I-] [Formula V] | – | – | – |
| 32 | C[N+](C)(CCCN)CCCOc1cc(/C=C/c2ccc(/C=C/c3cc(OCCC[N+](C)(C)CCCN)cc(OCCC[N+](C)(C)CCCN)c3)cc2)cc(OCCC[N+](C)(C)CCCN)c1 [Formula PP] | – | – | MIC [3]: 16 µg/mL |
| – | C(=C\c1cc(OCCCCCC[n+]2ccccc2)cc(OCCCCCC[n+]2ccccc2)c1)/c1cc(OCCCCCC[n+]2ccccc2)cc(OCCCCCC[n+]2ccccc2)c1.[I-].[I-].[I-].[I-] [Formula C] | – | – | IC50 [1]: 29.7 µg/mL |
| 32 | CC[N+](C)(C)CCCOc1cc(/C=C/c2ccc(/C=C/c3cc(OCCC[N+](C)(C)CC)cc(OCCC[N+](C)(C)CC)c3)cc2)cc(OCCC[N+](C)(C)CC)c1 [Formula Y] | > 1020 | 61 | – |
| > 128 | C[N+](C)(CCCOc1cc(/C=C/c2ccc(/C=C/c3cc(OCCC[N+](C)(C)CC(O)CO)cc(OCCC[N+](C)(C)CC(O)CO)c3)cc2)cc(OCCC[N+](C)(C)CC(O)CO)c1)CC(O)CO (stereo not shown) [Formula OO] | > 1020 | 61 | MIC [3]: > 64 µg/mL |
| – | C[N+](C)(C)CCCCCCN(CCCCCC[N+](C)(C)C)c1ccc(/C=C/c2ccc(/C=C/c3ccc(N(CCCCCC[N+](C)(C)C)CCCCCC[N+](C)(C)C)cc3)cc2)cc1 [Formula UU] | 43.7 | – | – |
| – | C[C@@H](O)[C@H]1C(=O)N2C(C(=O)O)=C(S[C@@H]3CN[C@H](C(=O)N(C)C)C3)[C@H](C)[C@H]12 [Meropenem, reference compound] | > 128 | 96 | – |
| 4 | CCCCCC[N+](C)(C)CCOc1cc(/C=C/c2ccc(/C=C/c3cc(OCC[N+](C)(C)CCCCCC)cc(OCC[N+](C)(C)CCCCCC)c3)cc2)cc(OCC[N+](C)(C)CCCCCC)c1.[I-].[I-].[I-].[I-] [Formula H] | 13 | – | – |
| 64 | C[N+]12CC[N+](CCCOc3cc(/C=C/c4ccc(/C=C/c5cc(OCCC[N+]67CC[N+](C)(CC6)CC7)cc(OCCC[N+]67CC[N+](C)(CC6)CC7)c5)cc4)cc(OCCC[N+]45CC[N+](C)(CC4)CC5)c3)(CC1)CC2 [Formula DD] | > 128 | 85 | MIC [3]: 16 µg/mL |
| 16 | CCCCCC[N+](C)(CCCCOc1cc(/C=C/c2ccc(/C=C/c3cc(OCCCC[N+](C)(CCCCCC)CCOCCOCCOC)cc(OCCCC[N+](C)(CCCCCC)CCOCCOCCOC)c3)cc2)cc(OCCCC[N+](C)(CCCCCC)CCOCCOCCOC)c1)CCOCCOCCOC (stereo not shown) [Formula KK] | – | – | – |
